Reference: patent publication US12448369B2 (Edgewise Therapeutics, Inc., priority 2023, dated 2025)

Columns and labels:
[1] = tested on: Rabbit Psoas myofibrils (skeletal myosin ATPase); experiment: Myofibril ATPase assay, rabbit psoas (skeletal) myofibrils; type: biochemical
In short: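 Values derive from concentration–response fits of NADH consumption rates at 340 nm, normalized to vehicle-only wells, as Y75 or Y125. Myofibril ATP turnover was linked to NADH via PK/LDH in Ca/EGTA-buffered PIPES, pH 7.0, and read over 75 min.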

[2] = tested on: Porcine atria myofibrils (atrial myosin ATPase); experiment: Myofibril ATPase assay, porcine atria myofibrils; type: biochemical
In short: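 Atrial myofibril ATPase measured by NADH-coupled absorbance at 340 nm; vehicle-normalized slopes fitted to give Y75 or Y125 values.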

[3] = biological target: T1, Porcine ventricle myofibrils (ventricular myosin ATPase) (Sus scrofa, UniProt P79293); experiment: Myofibril ATPase assay, porcine ventricle myofibrils; type: biochemical, porcine (Yucatan minipigs)
T1 construct: Myofibrils from porcine cardiac muscle was isolated from the left ventricle of Yucatan minipigs; tissue Exemplar Genetics; host or cells: left ventricle of Yucatan minipigs, myofibrils prepared in house
T1 sequence (P79293 whole entry): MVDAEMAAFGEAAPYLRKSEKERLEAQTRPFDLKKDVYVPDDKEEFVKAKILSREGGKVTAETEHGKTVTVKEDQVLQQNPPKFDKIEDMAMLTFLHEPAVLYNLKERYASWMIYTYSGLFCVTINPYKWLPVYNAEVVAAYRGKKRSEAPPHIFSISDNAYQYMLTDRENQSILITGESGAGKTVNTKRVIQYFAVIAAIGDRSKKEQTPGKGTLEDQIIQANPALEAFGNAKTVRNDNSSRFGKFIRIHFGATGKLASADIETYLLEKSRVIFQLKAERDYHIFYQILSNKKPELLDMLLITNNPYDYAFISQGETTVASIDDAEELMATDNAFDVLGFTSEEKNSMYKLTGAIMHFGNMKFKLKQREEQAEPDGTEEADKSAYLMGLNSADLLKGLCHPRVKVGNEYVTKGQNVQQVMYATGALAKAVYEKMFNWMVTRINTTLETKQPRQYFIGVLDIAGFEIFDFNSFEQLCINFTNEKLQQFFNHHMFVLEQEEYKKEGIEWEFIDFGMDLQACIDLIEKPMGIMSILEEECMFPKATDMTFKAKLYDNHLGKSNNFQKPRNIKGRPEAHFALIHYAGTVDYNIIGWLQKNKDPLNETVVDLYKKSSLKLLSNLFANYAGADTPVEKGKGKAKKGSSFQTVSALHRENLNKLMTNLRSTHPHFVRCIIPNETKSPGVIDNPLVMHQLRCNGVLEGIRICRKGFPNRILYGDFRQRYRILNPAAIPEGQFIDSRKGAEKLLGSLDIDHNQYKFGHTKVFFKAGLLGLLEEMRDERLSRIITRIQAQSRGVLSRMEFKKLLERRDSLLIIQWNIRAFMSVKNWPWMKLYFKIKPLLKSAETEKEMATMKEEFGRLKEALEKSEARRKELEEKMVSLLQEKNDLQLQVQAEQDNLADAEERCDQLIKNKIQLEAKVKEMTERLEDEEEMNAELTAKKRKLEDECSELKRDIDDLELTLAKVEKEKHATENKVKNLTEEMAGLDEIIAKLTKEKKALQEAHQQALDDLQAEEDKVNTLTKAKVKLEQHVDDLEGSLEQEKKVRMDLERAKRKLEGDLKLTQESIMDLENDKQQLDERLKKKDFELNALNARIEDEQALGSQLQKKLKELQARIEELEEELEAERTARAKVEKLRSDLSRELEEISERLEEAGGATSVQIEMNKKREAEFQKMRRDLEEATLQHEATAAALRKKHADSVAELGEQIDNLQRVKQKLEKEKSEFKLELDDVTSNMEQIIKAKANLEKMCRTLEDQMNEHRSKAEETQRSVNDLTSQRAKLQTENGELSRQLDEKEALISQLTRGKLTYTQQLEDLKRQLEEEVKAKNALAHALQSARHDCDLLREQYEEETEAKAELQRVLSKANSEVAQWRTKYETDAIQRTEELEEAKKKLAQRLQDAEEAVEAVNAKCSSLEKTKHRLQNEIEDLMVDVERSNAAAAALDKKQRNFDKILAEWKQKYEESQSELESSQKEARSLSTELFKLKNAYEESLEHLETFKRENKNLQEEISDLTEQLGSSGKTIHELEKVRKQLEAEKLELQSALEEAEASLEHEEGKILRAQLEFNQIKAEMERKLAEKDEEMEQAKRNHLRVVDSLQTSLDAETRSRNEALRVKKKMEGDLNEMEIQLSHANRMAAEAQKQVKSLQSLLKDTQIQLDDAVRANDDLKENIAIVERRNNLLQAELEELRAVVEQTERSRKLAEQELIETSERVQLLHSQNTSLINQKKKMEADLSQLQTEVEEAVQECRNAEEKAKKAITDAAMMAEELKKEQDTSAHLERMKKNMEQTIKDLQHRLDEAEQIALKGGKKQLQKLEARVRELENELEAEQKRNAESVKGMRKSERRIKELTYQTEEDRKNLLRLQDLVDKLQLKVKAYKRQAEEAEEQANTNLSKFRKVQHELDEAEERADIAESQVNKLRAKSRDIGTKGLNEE
In short: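 Test compounds acted on myofibrils isolated from the left ventricle of Yucatan minipigs. ADP formation was coupled via pyruvate kinase/lactate dehydrogenase to NADH oxidation, monitored kinetically at 340 nm over 75 min. Rates relative to vehicle were fitted with a 4-parameter logistic model, reported as Y75 (25% inhibition) or Y125 (activation) concentrations.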

[4] = rabbit psoas myofibrils, Y75 value
[5] = porcine atria myofibrils, Y75 value (75% activity relative to no compound)
[6] = porcine ventricle myofibrils, Y75 value
[7] = Y75 value (no ‡ mark), rabbit psoas myofibrils
[8] = Y75 value (no ‡ mark), porcine atria myofibrils
[9] = Y75 value (no ‡ mark), porcine ventricle myofibrils

Cc1nccc2[nH]c(=O)c(CC(=O)N[C@@H](C)c3ccncc3)c(C)c12 (single isomer, unassigned) [compound 334]
Skeletal EC25 [1, 4]: 100000 nM | Atrial EC25 [2, 5]: 100000 nM | Ventricular EC25 [3, 6]: 100000 nM

Cc1c(F)ccc2[nH]c(=O)c(CC(=O)N[C@@H](C)c3ncc(C#N)cc3F)c(C#N)c12 [compound 1150]
Skeletal EC25 [1, 7]: 40 nM | Atrial EC25 [2, 8]: 50 nM | Ventricular EC25 [3, 9]: 50 nM

Cc1nccc2[nH]c(=O)c(CC(=O)N[C@H](C)c3ncccc3F)c(C)c12 (single isomer, unassigned) [compound 267]
Skeletal EC25 [1, 4]: 100000 nM | Atrial EC25 [2, 5]: 100000 nM | Ventricular EC25 [3, 6]: 100000 nM

Cc1nccc2[nH]c(=O)c(CC(=O)N[C@@H](CO)c3ncc(F)cc3F)c(C)c12 (single isomer, unassigned) [compound 308]
Skeletal EC25 [1, 4]: 1820 nM | Atrial EC25 [2, 5]: 1070 nM | Ventricular EC25 [3, 6]: 12240 nM

Cc1c([C@H](C)C(=O)N[C@@H](C)c2ncc(C#N)cc2F)c(=O)[nH]c2ccc(F)c(F)c12 (single isomer, unassigned) [compound 2603]
Skeletal EC25 [1, 7]: 30 nM | Atrial EC25 [2, 8]: 60 nM | Ventricular EC25 [3, 9]: 210 nM

N#Cc1cc(F)c2c(c1)OC[C@H]2NC(=O)C1(c2cc3c(F)c(F)ccc3[nH]c2=O)CC1 (single isomer, unassigned) [compound 4821]
Skeletal EC25 [1, 7]: 20880 nM | Atrial EC25 [2, 8]: 440 nM | Ventricular EC25 [3, 9]: 100000 nM

C[C@H](NC(=O)Cc1c(C#N)c2cc(F)c(F)cc2[nH]c1=O)c1ccc(C#N)cn1 (single isomer, unassigned) [compound 2048]
Skeletal EC25 [1, 7]: 1250 nM | Atrial EC25 [2, 8]: 900 nM | Ventricular EC25 [3, 9]: 10980 nM

Cc1c(CC(=O)N[C@H](CO)c2ccc(C#N)cc2F)c(=O)[nH]c2ccnc(OC3CC3)c12 [compound 203]
Skeletal EC25 [1, 4]: 1100 nM | Atrial EC25 [2, 5]: 100000 nM | Ventricular EC25 [3, 6]: 100000 nM

CCOc1nccc2[nH]c(=O)c(CC(=O)N[C@@H](C)c3ccc(F)cc3F)c(C(F)(F)F)c12 [compound 422]
Skeletal EC25 [1, 4]: 30 nM | Atrial EC25 [2, 5]: 100000 nM | Ventricular EC25 [3, 6]: 100000 nM

Cc1nncc2[nH]c(=O)c(CC(=O)N[C@H](C)c3ccc(F)cc3F)cc12 [compound 499]
Skeletal EC25 [1, 4]: 100000 nM | Atrial EC25 [2, 5]: 100000 nM | Ventricular EC25 [3, 6]: 100000 nM

Cc1nc(C#N)cnc1[C@@H](C)NC(=O)Cc1c(C)c2c(F)c(F)ccc2[nH]c1=O [compound 1139]
Skeletal EC25 [1, 7]: 30 nM | Atrial EC25 [2, 8]: 140 nM | Ventricular EC25 [3, 9]: 140 nM

Cc1nccc2[nH]c(=O)c([C@H](C)C(=O)N[C@@H](C)c3ccc(F)cc3F)c(C(F)(F)F)c12 (single isomer, unassigned) [compound 413]
Skeletal EC25 [1, 4]: 10760 nM | Atrial EC25 [2, 5]: 20630 nM | Ventricular EC25 [3, 6]: 100000 nM

Cc1c([C@@H](C)C(=O)N[C@@H](C)c2ncc(C#N)cc2F)c(=O)[nH]c2ccc(F)c(F)c12 (relative stereo) [compound 2602, rel-(2R*)-N-[(1S)-1-(5-cyano-3-fluoropyridin-2-yl)ethyl]-2-(5,6-difluoro-4-methyl-2-oxo-1H-quinolin-3-yl) propanamide]
Skeletal EC25 [1, 7]: 20 nM | Atrial EC25 [2, 8]: 50 nM | Ventricular EC25 [3, 9]: 80 nM

Cc1c(CC(=O)N[C@@H](C)c2ccc(C#N)cn2)c(=O)[nH]c2ccc(F)c(F)c12 [compound 46]
Skeletal EC25 [1, 7]: 20 nM | Atrial EC25 [2, 8]: 240 nM | Ventricular EC25 [3, 9]: 120 nM

CNc1c(CC(=O)N[C@@H](C)c2ccc(F)cc2F)c(=O)[nH]c2ccccc12 [compound 128]
Skeletal EC25 [1, 7]: 170 nM | Atrial EC25 [2, 8]: 900 nM | Ventricular EC25 [3, 9]: 9830 nM

Cc1c(C(F)(F)C(=O)N[C@H](C)c2cnc(C#N)cn2)c(=O)[nH]c2ccc(F)cc12 (single isomer, unassigned) [compound 2563]
Skeletal EC25 [1, 7]: 120 nM | Atrial EC25 [2, 8]: 150 nM | Ventricular EC25 [3, 9]: 540 nM

C[C@H](NC(=O)[C@H](C)c1c(C(F)(F)F)c2c(F)cccc2[nH]c1=O)c1ccc(F)cc1F (single isomer, unassigned) [compound 98]
Skeletal EC25 [1, 7]: 60 nM | Atrial EC25 [2, 8]: 530 nM | Ventricular EC25 [3, 9]: 4120 nM

C[C@H](NC(=O)Cc1cc2c(C(F)(F)F)c(F)ccc2[nH]c1=O)c1ncc(C#N)cn1 (single isomer, unassigned) [compound 2010]
Skeletal EC25 [1, 7]: 660 nM | Atrial EC25 [2, 8]: 1250 nM | Ventricular EC25 [3, 9]: 3450 nM

N#Cc1cnc2c(c1)CC[C@H]2NC(=O)C1(c2cc3c(F)c(F)ccc3[nH]c2=O)CC1 (single isomer, unassigned) [compound 4823]
Skeletal EC25 [1, 7]: 42660 nM | Atrial EC25 [2, 8]: 8470 nM | Ventricular EC25 [3, 9]: 100000 nM

Cc1nccc2[nH]c(=O)c(CC(=O)N[C@H](C)c3cccc(O)n3)c(C)c12 (single isomer, unassigned) [compound 297]
Skeletal EC25 [1, 4]: 100000 nM | Atrial EC25 [2, 5]: 100000 nM | Ventricular EC25 [3, 6]: 100000 nM

Cc1c(C2(C(=O)N[C@H](C)c3ncc(C#N)cn3)CC2)c(=O)[nH]c2ccc(F)cc12 (single isomer, unassigned) [compound 2590]
Skeletal EC25 [1, 7]: 1300 nM | Atrial EC25 [2, 8]: 430 nM | Ventricular EC25 [3, 9]: 3410 nM

Cc1c(F)ccc2[nH]c(=O)c(CC(=O)N[C@@H](C)c3ncc(F)cc3F)c(C#N)c12 [compound 1148]
Skeletal EC25 [1, 7]: 50 nM | Atrial EC25 [2, 8]: 60 nM | Ventricular EC25 [3, 9]: 90 nM

C[C@H](NC(=O)Cc1cc2c(F)c(F)ccc2[nH]c1=O)c1nc(C#N)cs1 (single isomer, unassigned) [compound 4008]
Skeletal EC25 ([1]; Y75 value: concentration required to reduce myosin ATP-ase activity by 25%, Rabbit Psoas Prep pCa 25 GEOM_MEAN): 4420 nM | Atrial EC25 ([2]; Y75 value: concentration required to reduce myosin ATP-ase activity by 25%, Porcine Atria Prep pCa 25 GEOM_MEAN): 2240 nM | Ventricular EC25 ([3]; Y75 value: concentration required to reduce myosin ATP-ase activity by 25%, Porcine Ventricle Prep pCa 25 GEOM_MEAN): 2080 nM

Cc1c(F)ccc2[nH]c(=O)c(C(F)(F)C(=O)N[C@H](C)c3ncc(C#N)cc3F)c(C#N)c12 (single isomer, unassigned) [compound 2519]
Skeletal EC25 [1, 7]: 520 nM | Atrial EC25 [2, 8]: 310 nM | Ventricular EC25 [3, 9]: 1190 nM

Cc1c(C(F)(F)C(=O)N[C@H](C)c2cnc(C#N)cn2)c(=O)[nH]c2ccc(F)cc12 (single isomer, unassigned) [compound 4827]
Skeletal EC25 [1, 7]: 80 nM | Atrial EC25 [2, 8]: 230 nM | Ventricular EC25 [3, 9]: 710 nM

C[C@@H](NC(=O)C(F)(F)c1cc2c(C#N)c(F)ccc2[nH]c1=O)c1ncc(C#N)cc1F (single isomer, unassigned) [Compound 2529]
Skeletal EC25 [1, 7]: 240 nM | Atrial EC25 [2, 8]: 240 nM | Ventricular EC25 [3, 9]: 350 nM

Cc1c(CC(=O)N[C@@H](C)c2ccc(C#N)nn2)c(=O)[nH]c2ccc(F)cc12 [compound 1120]
Skeletal EC25 [1, 7]: 2900 nM | Atrial EC25 [2, 8]: 2580 nM | Ventricular EC25 [3, 9]: 10610 nM

C[C@H](NC(=O)Cc1c(C(F)(F)F)c2c(C3CC3)nccc2[nH]c1=O)c1ccc(C#N)nn1 (single isomer, unassigned) [compound 3004]
Skeletal EC25 [1, 4]: 5990 nM | Atrial EC25 [2, 5]: 10040 nM | Ventricular EC25 [3, 6]: 100000 nM

C[C@H](NC(=O)Cc1cc2nc(F)ccc2[nH]c1=O)c1ccc(F)cc1F [compound 392]
Skeletal EC25 [1, 4]: 70 nM | Atrial EC25 [2, 5]: 130 nM | Ventricular EC25 [3, 6]: 2650 nM

C[C@H](NC(=O)Cc1cc2nc(O)ccc2[nH]c1=O)c1ccc(F)cc1F [compound 300]
Skeletal EC25 [1, 4]: 100000 nM | Atrial EC25 [2, 5]: 100000 nM | Ventricular EC25 [3, 6]: 100000 nM
